Patent US20100254940A1, “Compositions and Methods for Regulating an Immune Response in a Subject” (INNATE PHARMA, S.A., priority 2002, published 2010)

Experiments:
[1] = test system: γδ T cell; assay: In vitro TNFα release assay, γδ T cell amplification from human PBMCs (in the presence of rhIL2); assay type: cell-based
Description: The in vitro biological activity of γδ T cell amplification from human PBMCs (in the presence of rhIL2) was assessed using a TNFα release assay.
Cytokine secretion and cytolytic activity can be assessed using any appropriate in vitro assay, or those provided in the examples herein. For example, cytokine secretion can be determined according to the methods described in Espinosa et al. (J. Biol. Chem., 2001, Vol. 276, Issue 21, 18337-18344), describing measurement of TNF-α release in a bioassay using TNF-α-sensitive cells. Briefly, 10^4 γδT cells/well were incubated with stimulus plus 25 units of IL2/well in 100 μl of culture medium during 24 h at 37° C. Then, 50 μl of supernatant were added to 50 μl of WEHI cells plated at 3×10^4 cells/well in culture medium plus actinomycin D (2 μg/ml) and LiCl (40 mM) and incubated for 20 h at 37° C. Viability of the TNF-α-sensitive cells and measured with a 3-(4,5-dimethylthiazol-2-yl)-2,5-diphenyltetrazolium bromide assay. 50 μl of 3-(4,5-dimethylthiazol-2-yl)-2,5-diphenyltetrazolium bromide (Sigma; 2.5 mg/ml in phosphate-buffered saline) per well were added, and after 4 h of incubation at 37° C., 50 μl of solubilization buffer (20% SDS, 66% dimethyl formamide, pH 4.7) were added, and absorbance (570 nm) was measured. Levels of TNF-α release were then calculated from a standard curve obtained using purified human rTNF-α (PeproTech, Inc., Rocky Hill, N.J.). Interferon-γ released by activated T cells was measured by a sandwich enzyme-linked immunosorbent assay. 5×10^4 γδT cells/well were incubated with stimulus plus 25 units of IL2/well in 100 μl of culture medium during 24 h at 37° C. Then, 50 μl of supernatant were harvested for enzyme-linked immunosorbent assay using mouse monoclonal antibodies (BIOSOURCE, Camarillo, Calif.). […]
BrHPP and HDMAPP bioactivity were compared using in vitro and in vivo assays. The in vitro biological activity of γδ T cell amplification from human PBMCs (in the presence of rhIL2) was assessed using a TNFα release assay.

[2] = test system: Vγ9/Vδ2 T cells; conditions: reported; cited from earlier work
[3] = test system: γδ T cell; assay: γδ T cell amplification from human PBMCs, counting γδ T cell using flow cytometry (given as in vivo EC50); assay type: cell-based; conditions: for EC50: γδ T cell amplification from human PBMCs, flow cytometry count
Description: The biological activity of γδ T cell amplification from human PBMCs was assessed by counting γδ T cell using flow cytometry.
In vitro proliferation assays and in vitro TNFα release assay are performed essentially as described in Example 3.

[4] = test system: γδ T cells; assay: In vivo γδ T cell amplification after successive i.v. HDMAPP/IL2 injections in cynomolgus monkeys; design: species or system cynomolgus monkeys (M. fascicularis); conditions: day 5
Description: Eight purpose bred healthy male cynomolgus monkeys (M. fascicularis). At the beginning of the study, body weights ranged from 3.5 to 4 kg and ages from 37 to 41 months.
Animals were anaesthetised with intra-muscular injection of 6 mg/kg Zoletil™ 100 (Tiletamine-Zolazepam, Virbac, Carros, France) before any perfusion.
HDMAPP was administered i.v. to male cynomolgus monkeys by 30-minute perfusions in a total volume of 50 ml with Ringer Lactate as vehicle. […]
The animals were co-treated subcutaneously with 0.6M IU IL2 in sterile water per day for 5 days.
Blood was drawn pre-dose and at day 4, 5, 7, 11 and 14 after HDMAPP perfusion for flow cytometry analysis of blood cellular populations of interest.
Peripheral γδ lymphocytes were analysed by flow cytometry on total monkey blood, after triple staining with anti-Vgamma9FITC, anti-CD3PE and anti-CD69PC5 antibodies (Vgamma9-FITC: 7B6 clone, produced, purified and FITC-coupled at Innate Pharma; CD3-PE: SP34 clone, BD Biosciences Pharmingen, Le Pont de Claix, France; CD69PC5: FN50 clone, Immunotech-Beckman-Coulter, Marseilles, France).
Briefly, 50 μl monkey blood was incubated 15 min at RT with 10 μl anti-gamma9-FITC, 5 μl anti-CD3-PE and 5 μl anti-CD69PC5 antibodies. Antibodies were washed with 3 ml 1×PBS, centrifuged for 4 min at 1300 rpm at RT and supernatant was discarded. Red cells were lysed with the OptiLyse C reagent (Immunotech-Beckman-Coulter, Marseilles, France) according to the manufacturer's instructions. At the final step, stained white blood cells were recovered by centrifugation and resuspended in 300 μl 1×PBS+0.2% PFA. Immediately before analysis, 50 μl calibrated Flow Count™ Fluorospheres (Immunotech-Beckman-Coulter, Marseilles, France) were added to the cells for absolute number counting of the populations of interest.

[5] = test system: γδ T cells; conditions: Wilhelm et al., 2003; cited from earlier work

EC50 ([1]; T-cell, TNFα release assay, human PBMCs, rhIL2) [nM] | Compound | difference in potency ([1]; HDMAPP vs BrHPP, in vitro EC50) [fold] | EC50 [2] [nM] | difference in potency ([3]; HDMAPP vs BrHPP) [log] | EC50 [3] [nM] | γδ cells among CD3+ ([4]; first of 4 successive injections, 5 weeks apart, 2.6 mg/kg) | γδ cells among CD3+ ([4]; fourth of 4 successive injections) [%] | γδ cells among CD3+ ([4]; second of 4 successive injections) [%] | γδ cells among CD3+ ([4]; third of 4 successive injections) | increase in γδ T cell count [5] [fold]
~0.6 | C/C(=C\COP(=O)(O)OP(=O)(O)O)CO [HDMAPP, (E)-4-hydroxy-3-methyl-2-butenyl pyrophosphate] | ~50 | ~0.1 | ~2 | ~0.005 | approx. 60% | ~40 | ~55 | approx. 60% | 
 | O=P(O)(O)C(O)(Cn1ccnc1)P(=O)(O)O [Zoledronate®, reference compound] |  |  |  | ~1000 |  |  |  |  | 
 | NCCC(O)(P(=O)(O)O)P(=O)(O)O [pamidronate] |  |  |  |  |  |  |  |  | ≤ 2
